The results in this text go back to US20230146455A1, “TREATMENT OF INFLAMMATORY DISEASES WITH PEPTIDES AND PHARMACEUTICAL COMPOSITIONS” (Yuyu Pharma, Inc., priority 2020, published 2023).

The subject of series [1] is IL-6 cytokine release in poly I:C stimulated primary human corneal epithelial cells. In words: Soluble IL-6 cytokine release in poly I:C stimulated primary human corneal epithelial cells by ELISA (Example 6). In kind it is cell-based. The text has this:
To determine the effect of compound by assessing the soluble IL-6 cytokine release in poly I:C stimulated primary human corneal epithelial cells by ELISA. • Test System: Primary Human Corneal Epithelial cells • Assay Format: 96-well plate format • Method of Detection: Enzyme-linked immunosorbent assay • Assay Controls: Hinokitiol Assay protocol as shown below was used to determine the significant effect of test compounds. The data was statistically analyzed by one-way ANOVA with a Bonferroni post test comparing all the columns. The significance was represented by the p value.
(In general: In an ELISA, binding on a coated surface is turned into a signal by an enzyme label.)

The subject of series [2] is IL-1beta, IL-6, IL-8, MIP-1alpha, MIP-1beta, RANTES, and TNF-alpha release in poly I:C stimulated primary human corneal epithelial cells. As to the kind of experiment: Panel of soluble proteins release in poly I:C stimulated primary human corneal epithelial cells by Multiplex (Example 4). In kind it is cell-based. The conditions noted are these: for IL-6, MFI Mean±SD: Stimulated 14801±407, p<0.05. The text has this: To determine the effect of compound by assessing the panel of soluble proteins release in poly I:C stimulated primary human corneal epithelial cells by Multiplex. • Test System: Primary Human Corneal Epithelial cells • Assay Format: 96-well plate format • Method of Detection: Enzyme-linked immunosorbent assay • Assay Controls: Hinokitiol Assay protocol as described below was used to determine the significant effect of test compounds. The data was statistically analyzed by one-way ANOVA with a Bonferroni post test comparing all the columns. The significance was represented by the p value.

Series [3] concerns NF-kB (p65). As to the kind of experiment: NF-kB (p65) transcription activity in poly I:C stimulated primary human corneal epithelial cells (Example 5). In kind it is cell-based. The text has this:
To determine the effect of YDE053 on NF-kB (p65) transcription activity in poly I:C stimulated primary human corneal epithelial cells. Study Plan • Test System: Primary Human Corneal Epithelial cells • Assay Format: 96-well plate format • Method of Detection: Enzyme-linked immunosorbent assay • Assay Controls: Hinokitiol Assay protocol as shown below was used to determine the significant effect of test compounds. The data was statistically analyzed by one-way ANOVA with a Bonferroni post test comparing all the columns. The significance was represented by the p value.

Series [4] relates to IL-6 cytokine release in poly I:C stimulated primary human corneal epithelial cells. As to the kind of experiment: Soluble IL-6 cytokine release in poly I:C stimulated primary human corneal epithelial cells by ELISA (Example 2). In kind it is cell-based. As to conditions: 30, 10, 1, 0.1, 0.01, 0.001 μM, 25 μg/mL poly I:C, 24 hours. As to the method: Assay protocol as shown below was used to determine the significant effect of test compounds. The data was statistically analyzed by one-way ANOVA with a Bonferroni post test comparing all the columns. The significance was represented by the p value.
Selected YDE peptides (YDE-093, -096, -100, -101, -102, -103, -104, -105, -106 and -107) were evaluated by assessing the soluble IL-6 cytokine release in poly I:C stimulated primary human corneal epithelial cells by ELISA (Biolegend, 430504).
Specifically, primary corneal epithelial cells (ATCC, ATCC PCS-700-010) were seeded on a 6-well culture plate containing the Corneal Epithelial Cell Basal Medium (ATCC, ATCC PCS-700-030) in the Corneal Epithelial Cell Growth Kit (ATCC, ATCC PCS-700-040) in an amount of 1.2×10^5 cells per well, which was then cultured for 24 hours under the conditions of 37° C. and 5% CO2. Then, cells were washed with 1×PBS and replaced with serum free medium which was then cultured for 2 hours under the conditions of 37° C. and 5% CO2.
After 2 hours, cells were treated with compounds at 6 differential concentrations (Hinokitiol/YDE peptides at 30, 10, 1, 0.1, 0.01, and 0.001 μM) with the DMSO final 0.5% and then cultured for 1 hour under the conditions of 37° C. and 5% CO2.
After 1 hour, cells were further treated with 25 μg/mL of poly I:C and cultured for 24 hours under the conditions of 37° C. and 5% CO2.
Following incubation, the supernatant was collected for IL-6 levels was assessed by Sandwich ELISA (Enzyme-linked immunosorbent assay) following manufacturer's instructions. The data was statistically analyzed by one-way ANOVA with a Bonferroni post-test comparing all the columns. The significance was represented by the p value.

Series [5] has as its system CIA-induced Rheumatoid Arthritis. In words: Mouse CIA-induced Rheumatoid Arthritis Model: body weight, hind paw thickness, clinical score (Example 13). In kind it is in vivo. The conditions noted are these: CII-injected mice. The text has this:
Clinical score: 0—no change; 1—swelling and erythema of the digit; 2—mild swelling and erythema of the limb; 3—gross swelling and erythema of the digit; 4—gross deformity and inability to use the limb.

Series [6] concerns primary corneal epithelial cells. In words: Cell proliferation of primary corneal epithelial cells (CellTiter-Glo, Example 3). Format: cell-based, human. As to the method:
• Test System: HCE cells from ATCC. • Assay Format: 96-well plate format • Method of Detection: CellTiter-Glo Luminescent Cell Viability Assay (Pro mega, Cat #G7573) • Assay Controls: Reference compound (hEGF) and untreated cells • Test Samples: 57 • Media: Corneal Epithelial Cell Basal Medium+Cell growth kit components EXPERIMENTAL DESIGN
Specifically, 5000 primary corneal epithelial cells/well were seeded in a white opaque 96-well plate and incubated for 24 hrs in a 37° C. incubator supplemented with 5% CO2. After 24 hours, test compounds were treated at 8 different concentrations. Cells treated with compounds were incubated for 48 & 72 hrs at 37° C. in a 5% CO2 incubator. Post appropriate incubation time points, CellTiter-Glo luminescent reagent (Promega, Cat #G7573) was added to the plates and incubated at room temperature for 30 min. Luminescence signal was captured using EnVision^2104® Multilabel reader. Assay controls were reference compound (hEGF) and untreated cells.
On the technique in general: ATP-based viability assays read luminescence as a measure of living cells.

Regarding `CC(C)c1cccc(=O)c(O)c1` [Hinokitiol], the “Poly I:C induced IL-6 cytokine release (in words)” value in series [1] and in series [4] was “significantly attenuate the Poly I:C stimulated IL-6 cytokine release in a dose dependent manner” in each case. Also, in series [2] (Multiplex), the “Poly I:C stimulated cytokines release (IL-1beta, IL-6, IL-8, MIP-1alpha, MIP-1beta, RANTES, and TNF-alpha) (in words)” value was “significantly attenuate the Poly I:C stimulated cytokines release”. The “IL-6, MFI Mean±SD” value in series [2] (Stimulated + 1 μM) was 7004±376; in series [2] (Stimulated + 10 μM), 7011±471; in series [2] (Stimulated + 30 μM), 6759±500. The “phosphorylation of (p65) NF-kB in Poly I:C stimulated cells (in words)” value in series [3] is on record as “significantly attenuate the phosphorylation of (p65) NF-kB in Poly I:C stimulated cells in a dose dependent manner”.
As to `C[C@@H]1C[C@H]2[C@@H]3CCC4=CC(=O)C=C[C@]4(C)[C@@]3(F)[C@@H](O)C[C@]2(C)[C@@]1(O)C(=O)CO` [dexamethasone], in series [5], the “body weight (in words)” value is reported as “lead to a decease in body weight in mice”.
As for “Human epidermal growth factor (NSDSECPLSHDGYCLHDGVCMYIEALDKYACNCVVGYIGERCQYRDLKWWELR; UniProt P01133 971-1023, looked up) [hEGF]”, in series [6] (48 hrs or 72 hrs, 30 to 0.01 μM), the “cell proliferation (in words)” value was “Concentration dependent proliferation of primary corneal epithelial cells”. Further, the maximum proliferation in series [6] (highest tested concentration of 30 μM, 48 hrs) was around 40%.
